The record followed here is US20220017512A1 (SHANGHAI ENNOVABIO PHARMACEUTICALS CO., LTD., priority 2018, published 2022).

Molecules are shown by their SMILES. Where a name gives a salt, the structure may show the parent alone.

Format in all cases: biochemical
One experiment has as its target T1, Recombinant human TRKA (Homo sapiens, UniProt P04629).
T1 construct: purchased Carna Biosciences
In words: In vitro activity test on TRKA kinase (HTRF KinEASE TK). As to conditions: 14.68 μM ATP, 40 min. In outline: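 Reaction: 0.2 ng/μL TRKA, 1 μM biotinylated TK substrate, 14.68 μM ATP, 5 mM MgCl2, 1 mM DTT, 1% DMSO, 40 min at room temperature. Compounds tested at 1 μM to 0.05 nM (10-point, 3-fold, duplicate). HTRF 665/620 ratio converted to % inhibition versus no-compound control; IC50 by 4-parameter fit.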
(Time-resolved FRET reads energy transfer from a long-lived donor to a nearby acceptor.)

The target in experiment [1] is T2, recombinant human TRKA (G667C) (Homo sapiens, UniProt P04629, G667C).
T2 construct: purchased SignalChem
In words: In vitro activity test on mutant TRKA (G667C) (HTRF KinEASE TK). As to conditions: 5.5 μM ATP, 30 min. The gist of the method:
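HTRF KinEASE TK format with recombinant human TRKA G667C (0.026 ng/μL), 1 μM biotinylated TK substrate, 5.5 […] ATP, 5 mM MgCl2, 1 mM DTT, 1% DMSO; 30 min at room temperature. Detection overnight; 665/620 ratio gives % inhibition, IC50 from 4-parameter fit over 10 doses (1 μM–0.004 nM).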

A further experiment concerns the target T3, Recombinant human TRKC (Homo sapiens, UniProt Q16288).
T3 construct: purchased Carna Biosciences
In words: In vitro activity test on TRKC kinase (HTRF KinEASE TK). As to conditions: 25.64 μM ATP, 40 min. In outline: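 Recombinant human TRKC (0.037 ng/μL) with 1 μM biotinylated TK substrate, 25.64 μM ATP, 5 mM MgCl2, 1 mM DTT, 40 min at room temperature; compound 1 μM to 0.05 nM, 1% DMSO. HTRF 665/620 ratio after overnight detection; IC50 from 4-parameter fit.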

Experiment [2] deals with T4, recombinant human TRKA (G595R) (Homo sapiens, UniProt P04629, G595R).
T4 construct: purchased SignalChem
In words: In vitro activity test on mutant TRKA (G595R) (HTRF KinEASE TK). As to conditions: 4.5 μM ATP, 30 min. The gist of the method: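 HTRF KinEASE TK format: 0.12 ng/μL recombinant TRKA (G595R), 1 μM biotinylated TK substrate, 4.5 μM ATP, 5 mM MgCl2, 1 mM DTT, 1% DMSO, 30 min at room temperature; detection overnight. IC50 from 10-point 4-fold series (1 μM to 0.004 nM, duplicates), 665/620 ratio, 4-parameter fit.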

Another experiment deals with T5, Recombinant human TRKB (Homo sapiens, UniProt Q16620).
T5 construct: purchased Carna Biosciences
In words: In vitro activity test on TRKB kinase (HTRF KinEASE TK). As to conditions: 4.77 μM ATP, 50 min. In outline: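 Recombinant human TRKB (0.037 ng/μL) phosphorylated 1 μM biotinylated TK substrate at 4.77 μM ATP, 5 mM MgCl2, 1% DMSO, 50 min at room temperature; compounds 1 μM–0.05 nM. HTRF KinEASE detection overnight; 665/620 ratio converted to inhibition and IC50 from 4-parameter fit.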

T2 sequence (P04629 33-796 G667C): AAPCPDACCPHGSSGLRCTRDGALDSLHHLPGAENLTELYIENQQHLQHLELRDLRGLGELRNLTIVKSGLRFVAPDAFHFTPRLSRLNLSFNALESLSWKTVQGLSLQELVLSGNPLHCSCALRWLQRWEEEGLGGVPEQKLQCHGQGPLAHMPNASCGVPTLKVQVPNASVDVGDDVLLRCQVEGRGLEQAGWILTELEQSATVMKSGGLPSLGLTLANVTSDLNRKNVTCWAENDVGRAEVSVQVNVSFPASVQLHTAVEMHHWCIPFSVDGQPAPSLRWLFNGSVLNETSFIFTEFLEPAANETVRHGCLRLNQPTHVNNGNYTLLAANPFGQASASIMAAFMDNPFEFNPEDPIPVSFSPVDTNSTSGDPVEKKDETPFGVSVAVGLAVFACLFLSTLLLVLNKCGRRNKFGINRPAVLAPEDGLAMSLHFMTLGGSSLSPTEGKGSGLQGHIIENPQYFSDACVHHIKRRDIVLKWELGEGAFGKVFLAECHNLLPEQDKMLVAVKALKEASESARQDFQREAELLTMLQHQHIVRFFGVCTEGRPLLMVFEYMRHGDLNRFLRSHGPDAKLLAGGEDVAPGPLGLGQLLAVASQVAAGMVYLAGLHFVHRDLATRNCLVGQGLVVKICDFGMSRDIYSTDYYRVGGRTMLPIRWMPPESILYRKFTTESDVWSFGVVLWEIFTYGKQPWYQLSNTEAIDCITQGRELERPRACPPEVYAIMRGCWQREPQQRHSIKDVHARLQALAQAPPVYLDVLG
T1 sequence (P04629 33-796): as the sequence (P04629 33-796 G667C) above, with C635G counted along it
T5 sequence (Q16620 32-822): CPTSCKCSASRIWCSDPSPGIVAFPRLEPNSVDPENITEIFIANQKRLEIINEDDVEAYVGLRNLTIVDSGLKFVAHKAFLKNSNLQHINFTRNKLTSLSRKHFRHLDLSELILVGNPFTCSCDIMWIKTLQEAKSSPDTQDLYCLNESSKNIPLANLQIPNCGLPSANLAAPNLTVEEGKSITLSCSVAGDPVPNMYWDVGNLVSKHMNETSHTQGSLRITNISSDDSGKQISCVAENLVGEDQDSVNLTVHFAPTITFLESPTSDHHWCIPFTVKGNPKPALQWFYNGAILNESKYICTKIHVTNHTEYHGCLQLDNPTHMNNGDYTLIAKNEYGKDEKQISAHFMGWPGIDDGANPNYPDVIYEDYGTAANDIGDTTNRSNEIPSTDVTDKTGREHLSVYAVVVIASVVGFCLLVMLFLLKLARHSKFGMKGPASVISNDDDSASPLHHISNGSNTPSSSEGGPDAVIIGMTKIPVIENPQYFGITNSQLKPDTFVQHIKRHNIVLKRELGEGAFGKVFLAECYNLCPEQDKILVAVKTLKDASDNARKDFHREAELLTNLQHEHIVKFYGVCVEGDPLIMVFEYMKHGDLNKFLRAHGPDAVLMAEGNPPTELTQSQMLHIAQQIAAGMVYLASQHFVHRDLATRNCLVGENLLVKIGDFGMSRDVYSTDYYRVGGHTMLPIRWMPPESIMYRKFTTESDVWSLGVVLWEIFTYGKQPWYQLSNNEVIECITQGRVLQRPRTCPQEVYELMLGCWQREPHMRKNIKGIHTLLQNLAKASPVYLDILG
T4 sequence (P04629 33-796 G595R): as the sequence (P04629 33-796 G667C) above, with G563R, C635G counted along it
T3 sequence (Q16288 32-839): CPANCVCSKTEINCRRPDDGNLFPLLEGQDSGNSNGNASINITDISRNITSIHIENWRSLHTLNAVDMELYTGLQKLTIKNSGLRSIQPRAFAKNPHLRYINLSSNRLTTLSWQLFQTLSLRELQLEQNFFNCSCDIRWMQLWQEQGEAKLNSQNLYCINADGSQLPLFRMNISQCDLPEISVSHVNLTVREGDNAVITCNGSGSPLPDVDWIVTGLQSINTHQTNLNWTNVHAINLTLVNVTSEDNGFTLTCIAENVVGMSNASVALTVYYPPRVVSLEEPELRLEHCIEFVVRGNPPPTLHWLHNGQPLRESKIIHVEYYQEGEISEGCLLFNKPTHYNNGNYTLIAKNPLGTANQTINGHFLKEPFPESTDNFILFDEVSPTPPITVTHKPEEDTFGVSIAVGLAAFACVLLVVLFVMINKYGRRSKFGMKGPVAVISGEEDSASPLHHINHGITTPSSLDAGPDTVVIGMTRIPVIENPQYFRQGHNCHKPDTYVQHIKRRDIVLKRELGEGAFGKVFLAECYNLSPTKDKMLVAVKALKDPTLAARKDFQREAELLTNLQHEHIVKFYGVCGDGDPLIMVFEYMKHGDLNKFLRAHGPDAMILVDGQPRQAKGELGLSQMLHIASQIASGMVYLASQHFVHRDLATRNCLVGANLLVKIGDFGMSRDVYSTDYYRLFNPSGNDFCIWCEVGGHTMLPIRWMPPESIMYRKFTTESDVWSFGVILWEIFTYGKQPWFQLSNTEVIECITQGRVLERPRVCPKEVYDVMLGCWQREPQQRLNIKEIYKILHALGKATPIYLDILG

A word on the IC50: it is the midpoint of a concentration-inhibition curve. As to `O[C@H]1CCN(c2cnn(-c3ncnc4ccc(N5C[C@@H](F)C[C@@H]5c5cc(F)ccc5F)nc34)c2)C1` [Example 70, (S)-1-(1-(6-((2R,4S)-2-(2,5-difluorophenyl)-4-fluoropyrrolidin-1-yl)pyrido[3,2-d]pyrimidin-4-yl)-1H-pyrazol-4-yl)pyrrolidin-3-ol], the IC50 is below 1 nM at Recombinant human TRKA; below 10 nM in experiment [1]; below 1 nM on Recombinant human TRKC; below 10 nM in experiment [2]; below 1 nM on Recombinant human TRKB.
Consider `CC(C)N1CCC(n2cc(-c3ccnc4ccc(N5C[C@@H](F)C[C@@H]5c5cc(F)ccc5F)nc34)cn2)CC1` [Example 14], for which the IC50 is below 1 nM on Recombinant human TRKA; below 50 nM in experiment [1]; below 1 nM on Recombinant human TRKC; below 1 nM in experiment [2]; below 10 nM at Recombinant human TRKB.
For the compound `Fc1ccc(F)c([C@H]2C[C@H](F)CN2c2ccc3ncc(Cl)c(-c4cnn([C@@H]5CCNC5)c4)c3n2)c1` [Example 56, 7-chloro-2-((2R,4S)-2-(2,5-difluorophenyl)-4-fluoropyrrolidin-1-yl)-8-(1-((R)-pyrrolidin-3-yl)-1H-pyrazol-4-yl)-1,5-naphthyridine], the concentration for half-maximal inhibition (IC50) is below 1 nM at Recombinant human TRKA; below 10 nM in experiment [1]; below 1 nM on Recombinant human TRKC; below 10 nM in experiment [2]; below 10 nM at Recombinant human TRKB.
As to `O[C@H]1CCN(c2nc(-c3c(F)cnc4ccc(N5C[C@@H](F)C[C@@H]5c5cc(F)ccc5F)nc34)no2)C1` [Example 77, (S)-1-(3-(6-((2R,4S)-2-(2,5-difluorophenyl)-4-fluoropyrrolidin-1-yl)-3-fluoro-1,5-naphthyridin-4-yl)-1,2,4-oxadiazol-5-yl)pyrrolidin-3-ol], the IC50 on Recombinant human TRKA was below 1 nM; in experiment [1] it was below 50 nM; at Recombinant human TRKC, below 10 nM; in experiment [2], below 1 nM; at Recombinant human TRKB it was below 10 nM.
Turning to `O=C(Nc1ccnc2ccc(N3C[C@@H](F)C[C@@H]3c3cc(F)ccc3F)nc12)N1CC[C@H](O)C1` [Example 26, (S)—N-(6-((2R,4S)-2-(2,5-difluorophenyl)-4-fluoropyrrolidin-1-yl)-1,5-naphthyridin-4-yl)-3-hydroxypyrrolidin-1-carboxamide], the IC50 (at Recombinant human TRKA; in experiment [1]; on Recombinant human TRKC; in experiment [2]; at Recombinant human TRKB) was below 1 nM each time.
With `Fc1ccc(F)c([C@H]2CCCN2c2ccc3ncc(Cl)c(-c4cnn(C5CCNCC5)c4)c3n2)c1` [Example 24, (R)-7-chloro-2-(2-(2,5-difluorophenyl)pyrrolidin-1-yl)-8-(1-(piperidin-4-yl)-1H-pyrazol-4-yl)-1,5-naphthyridine], the IC50 on Recombinant human TRKA is below 1 nM; in experiment [1], below 10 nM; at Recombinant human TRKC, below 10 nM; in experiment [2] it was below 1 nM; on Recombinant human TRKB, below 1 nM.
As for `Fc1ccc(F)c([C@H]2C[C@H](F)CN2c2ccc3ncnc(-c4cnn(CC5CNC5)c4)c3n2)c1` [Example 59, 4-(1-(azetidin-3-ylmethyl)-1H-pyrazol-4-yl)-6-((2R,4S)-2-(2,5-difluorophenyl)-4-fluoropyrrolidin-1-yl)pyrido[3,2-d]pyrimidine HCOOH salt], the IC50 is below 1 nM at Recombinant human TRKA; below 10 nM in experiment [1]; below 1 nM on Recombinant human TRKC; below 10 nM in experiment [2]; below 50 nM at Recombinant human TRKB.
On to `Fc1ccc(F)c([C@H]2C[C@H](F)CN2c2ccc3ncc(Cl)c(-c4cnn(C5CCNCC5)n4)c3n2)c1` [Example 41, 7-chloro-2-((2R,4S)-2-(2,5-difluorophenyl)-4-fluoropyrrolidin-1-yl)-8-(2-(piperidin-4-yl)-2H-1,2,3-triazol-4-yl)-1,5-naphthyridine], for which the IC50 on Recombinant human TRKA was below 1 nM; in experiment [1], below 1 nM; on Recombinant human TRKC, below 1 nM; in experiment [2] it was below 10 nM; on Recombinant human TRKB, below 1 nM.
Regarding `O[C@H]1CN=C(Nc2ccnc3ccc(N4C[C@@H](F)C[C@@H]4c4cc(F)ccc4F)nc23)OC1` [Example 99, (S)-2-((6-((2R,4S)-2-(2,5-difluorophenyl)-4-fluoropyrrolidin-1-yl)-1,5-naphthyridin-4-yl)amino)-5,6-dihydro-4H-1,3-oxazin-5-ol], the IC50 is below 1 nM on Recombinant human TRKA; below 1 nM in experiment [1]; below 10 nM at Recombinant human TRKC; below 1 nM in experiment [2]; below 1 nM at Recombinant human TRKB.
On to `COC1(C)CC(n2cc(-c3c(Cl)cnc4ccc(N5C[C@@H](F)C[C@@H]5c5cc(F)ccc5F)nc34)cn2)C1` (stereo partly drawn) [Example 38, 7-chloro-2-((2R,4S)-2-(2,5-difluorophenyl)-4-fluoropyrrolidin-1-yl)-8-(1-(3-methoxy-3-methylcyclobutyl)-1H-pyrazol-4-yl)-1,5-naphthyridine], for which the IC50 was below 1 nM at Recombinant human TRKA; below 50 nM in experiment [1]; below 10 nM at Recombinant human TRKC; below 50 nM in experiment [2]; below 10 nM at Recombinant human TRKB.
As to `N#Cc1cnc2ccc(N3C[C@@H](F)C[C@@H]3c3cc(F)ccc3F)nc2c1-c1cnn(C2CCNCC2)c1` [Example 36, 6-((2R,4S)-2-(2,5-difluorophenyl)-4-fluoropyrrolidin-1-yl)-4-(1-(piperidin-4-yl)-1H-pyrazol-4-yl)-1,5-naphthyridin-3-carbonitrile], the IC50 was below 1 nM at Recombinant human TRKA; below 10 nM in experiment [1]; below 1 nM on Recombinant human TRKC; below 10 nM in experiment [2]; below 1 nM on Recombinant human TRKB.
Regarding `O[C@H]1CCN(c2ccc(-c3ncnc4ccc(N5C[C@@H](F)C[C@@H]5c5cc(F)ccc5F)nc34)cn2)C1` [Example 75, (S)-1-(5-(6-((2R,4S)-2-(2,5-difluorophenyl)-4-fluoropyrrolidin-1-yl)pyrido[3,2-d]pyrimidin-4-yl)pyridin-2-yl)pyrrolidin-3-ol], the IC50 was below 1 nM at Recombinant human TRKA; below 10 nM in experiment [1]; below 1 nM on Recombinant human TRKC; below 1 nM in experiment [2]; below 1 nM on Recombinant human TRKB.
For `O[C@H]1CCN(c2ccc(-c3c(Cl)cnc4ccc(N5C[C@@H](F)C[C@@H]5c5cc(F)ccc5F)nc34)cn2)C1` [Example 66, (S)-1-(5-(3-chloro-6-((2R,4S)-2-(2,5-difluorophenyl)-4-fluoropyrrolidin-1-yl)-1,5-naphthyridin-4-yl)pyridin-2-yl)pyrrolidin-3-ol], the IC50 on Recombinant human TRKA is below 1 nM; in experiment [1], below 10 nM; on Recombinant human TRKC it was below 10 nM; in experiment [2] it was below 10 nM; on Recombinant human TRKB it was below 10 nM.
With `Fc1ccc(F)c([C@H]2C[C@H](F)CN2c2ccc3ncc(Cl)c(-c4cn(C5CCNCC5)nn4)c3n2)c1` [Example 67, 7-chloro-2-((2R,4S)-2-(2,5-difluorophenyl)-4-fluoropyrrolidin-1-yl)-8-(1-(piperidin-4-yl)-2H-1,2,3-triazol-4-yl)-1,5-naphthyridine], the IC50 at Recombinant human TRKA was below 1 nM; in experiment [1], below 10 nM; on Recombinant human TRKC, below 1 nM; in experiment [2], below 10 nM; at Recombinant human TRKB, below 1 nM.
Regarding `CC(C)(O)Cn1cc(-c2c(Cl)cnc3ccc(N4C[C@@H](F)C[C@@H]4c4cc(F)ccc4F)nc23)cn1` [Example 35, 1-(4-(3-chloro-6-((2R,4S)-2-(2,5-difluorophenyl)-4-fluoropyrrolidin-1-yl)-1,5-naphthyridin-4-yl)-1H-pyrazol-1-yl)-2-methylpropan-2-ol], the IC50 on Recombinant human TRKA was below 1 nM; in experiment [1] it was below 10 nM; at Recombinant human TRKC, below 1 nM; in experiment [2] it was below 10 nM; on Recombinant human TRKB it was below 1 nM.
With `Fc1ccc(F)c([C@H]2C[C@H](F)CN2c2ccc3ncc(Cl)c(-c4cnn([C@H]5CCNC5)c4)c3n2)c1` [Example 57, 7-chloro-2-((2R,4S)-2-(2,5-difluorophenyl)-4-fluoropyrrolidin-1-yl)-8-(1-((S)-pyrrolidin-3-yl)-1H-pyrazol-4-yl)-1,5-naphthyridine], the IC50 on Recombinant human TRKA is below 1 nM; in experiment [1] it was below 10 nM; at Recombinant human TRKC it was below 1 nM; in experiment [2], below 1 nM; at Recombinant human TRKB it was below 10 nM.
